Assay results: patent US9512176B2, “Age inhibitors” (Centre National de la Recherche Scientifique, priority 2005, dated 2016)
Non-standard residues stand in square brackets, D forms with d. Residues, ends and D or L forms follow the SMILES beside them. Dap = NC[C@H](N)C(=O)O

Assays:
ribonuclease A [1] = test: Enzymatic activity of ribonuclease A after treatment with methylglyoxal and inhibitors (methylene blue RNA staining); type: biochemical; conditions: ribonuclease A treated with methylglyoxal (MG) + inhibitor in equimolar quantity, 37° C.; control RNase 100, RNase + methylglyoxal 10.11%
Experimental: (§1) Ribonuclease A and lysozyme (10 mg/ml) are incubated in the presence of methylglyoxal (10 mM) or in the presence of methylglyoxal and one of the inhibitors according to the present invention in an equimolar quantity at 37° C. After 48 hours of incubation, the proteins are analyzed by polyacrylamide gel electrophoresis (8%-16% SDS PAGE gel).
The enzymatic activity of ribonuclease A after treatment with methylglyoxal and the various inhibitors according to the present invention is measured using the methylene blue RNA staining technique of Greiner-Stöffele et al. (Anal. Biochem. (1996) 240, 24).

[2] = Battah et al. 2002; cited from earlier work
EA.hy 926 cell line = test: Growth of EA.hy 926 endothelial cells with MG scavengers and/or methylglyoxal (MTT); type: cell-based, human; conditions: for viability at 1000 µM: Homo sapiens, EA.hy 926, scavenger 1 mM + methylglyoxal 600 μM, relative to untreated control cells, MG alone 24, read-out: Cells + MG scavengers + Methylglyoxal (B); for viability at 1000 µM / Cells + MG scavengers (A): 48 hours, mean of 3 experiments; for Difference (B) − (A): Table 2, cells with scavenger + MG minus cells with scavenger alone; for Cells + MG scavengers (A): scavenger 1 mM, no methylglyoxal, number of cells relative to untreated control cells; for effect against suppression of cell growth by MG: scavenger + methylglyoxal
Experimental: The cells used for the test are from the EA.hy 926 cell line, which are endothelial cells obtained by the hybridization of human umbilical vein endothelial cells (HUVECs) with lung cancer cells (A549). The EA.hy 926 endothelial cells are incubated in Dulbecco's modified Eagle's Medium (DMEM) enriched with 10% fetal calf serum. The cells are incubated in 12-well plates. Each well initially contains 100,000 cells. Cell growth is achieved by incubating the cells in 2 ml of culture medium after adding or not adding the various potential inhibitors (1 mM) and/or methylglyoxal (600 μM) for 48 hours at 37° C. in a moist atmosphere with 5% CO2.
The number of cells is evaluated in the following way:
The cells are stained using the (4,5-dimethylthiazol-2-yl)-2,5-diphenyltetrazolium bromide (MTT) assay. MTT penetrates in the cell where it is converted into formazan. The quantity of formazan formed is proportional to the number of living cells.
The results are expressed as a relative percentage of the number of cells after treatment compared to the number of control cells without treatment [100*OD (treated cells)/OD (control cells)]. Detection is carried out by UV/visible spectrophotometry at 570 nm.
Principle: MTT (yellow) penetrates the cell and is converted into an insoluble blue compound, formazan, by cleavage of its tetrazolium rings by the mitochondrial dehydrogenase enzymes of living cells. Formazan is solubilized by isopropanol. The number of cells is proportional to the quantity of formazan formed and its absorbance.

ribonuclease A [3] = test: SDS PAGE electrophoresis of ribonuclease A incubated with methylglyoxal and inhibitor; type: biochemical
Experimental: as §1
The AGE inhibitors according to the present invention, namely L-DAPA-L-Leu (example 1) and L-DAPA-L-Ile (example 18), or AG (10 mM) are incubated with MG and ribonuclease A for […] at 37° C.

lysozyme = test: SDS PAGE electrophoresis of lysozyme incubated with methylglyoxal and inhibitor; type: biochemical; conditions: lysozyme 10 mg/ml, methylglyoxal 10 mM, inhibitor equimolar, 37° C., 48 hours
Experimental: as §1

RNase A = RNase A modifications induced by methylglyoxal (HPLC); type: biochemical; conditions: RNase A 0.08 mM, methylglyoxal 32 mM, compound 38 mM, 21 hours at 37° C.
Experimental: FIGS. 11 to 13 present the results obtained by HPLC for three compounds according to the present invention, L-DAPA-L-Ile (example 18), L-DAPA-L-Val (example 23) and L-DAPA-L-Leu (example 1), on RNase A modifications induced by methylglyoxal. HPLC conditions are as follows: C-18, Symmetry 300 (4.6×250 mm) column, injection volume 100 μl of reaction mixture diluted to 1/10; flow 1 ml/min; temperature 40° C.; solvent A: H2O+0.1% TFA; solvent B: 60/40 CH3CN/H2O+0.1% TFA; linear gradient of 20% B to 80% B in 20 minutes; detection: UV at 215 nm: PDA (chromatograms extracted at 215 nm).

somatostatin-14 = test: Somatostatin-14 modifications induced by methylglyoxal (HPLC); type: biochemical; conditions: somatostatin-14 0.03 mm, methylglyoxal 3.6 mM, compound 4.3 mM, 24 hours at 37° C.
Experimental: FIGS. 9 and 10 present the results obtained by HPLC for two compounds according to the present invention, L-DAPA-L-Leu (example 1) and L-DAPA-L-Val (example 23), on somatostatin-14 modifications induced by methylglyoxal. HPLC conditions are as follows: C-18, Symmetry 300 (4.6×250 mm) column, injection volume 100 μl of reaction mixture; flow 1 ml/min; solvent A: H2O+0.1% TFA; solvent B: 80/20 CH3CN/H2O+0.1% TFA; linear gradient: from 20% B to 60% B in 15 minutes and isocratic from 60% B for 10 minutes; ambient temperature; detection: PDA (chromatograms extracted at 215 nm).
In these figures, (a) represents the results of somatostatin-14 alone; (b) represents the results of somatostatin-14+methylglyoxal; (c) represents the results of somatostatin-14+methylglyoxal+L-DAPA-L-Val (example 23) and (d) represents the results of somatostatin-14+methylglyoxal+L-DAPA-L-Leu (example 1).

Human insulin = test: Modification of insulin by methylglyoxal (HPLC); type: biochemical; conditions: insulin 0.034 mM, methylglyoxal 3.4 mM, scavenger 4.08 mM, pH 7.45, 37° C.
Experimental: FIG. 1 presents the comparative effects of dicarbonyl scavengers in the form of dihydrochloride according to the present invention and the comparison with DAPA on the modification of insulin (Ins) by methylglyoxal (MG). The percentage of insulin is indicated following incubation with methylglyoxal in the presence or absence of dicarbonyl scavengers. Insulin (0.034 mM) is incubated in vitro in a 10 mM phosphate buffer, pH 7.45 (containing 0.1 M NaCl) with methylglyoxal (3.4 mM) in the presence of dicarbonyl scavengers (4.08 mM) for 21 hours at 37° C. Insulin concentration is measured by HPLC (same conditions as in FIG. 3).
FIGS. 3 to 8 present the results obtained by HPLC for two compounds according to the present invention, L-DAPA-L-Leu (example 1) and L-DAPA-L-Val (example 23), on insulin modifications induced by methylglyoxal. It can be observed that these modifications are prevented. The HPLC conditions are as follows: C-18, Symmetry 300 (4.6×250 mm) column, injection volume 100 μl of reaction mixture; flow 1 ml/min; temperature 40° C.; solvent A: H2O+0.1% TFA; solvent B: 60/40 CH3CN/H2O+0.1% TFA; linear gradient of 50% B to 55% B in 15 minutes; detection: UV at 215 nm: PDA (chromatograms extracted at 220 nm).
Human insulin (Ins) is incubated with methylglyoxal (MG) under physiological conditions. After 24 hours, the insulin is completely modified, as illustrated in FIG. 1 (Ins+MG).
On the other hand, insulin is incubated with methylglyoxal in the presence of an equimolar quantity of the AGE inhibitors according to the present invention under physiological conditions.

[4] = test system: seven strains of Salmonella (six mixed strains, strain TA98); test: Ames test with and without human liver S9 fractions; type: cell-based; parameters: key to Six mixed strains / Strain TA98: −: non-mutagenic; +: mutagenic; conditions: for Six mixed strains / Strain TA98: mixture with methylglyoxal, 10/1/0.1 μM
Experimental: An Ames test was performed with L-DAPA-L-Leu (example 1) and L-DAPA-L-Val (example 23) alone and in combination with methylglyoxal on human liver S9 fractions and on seven strains of Salmonella.
The concentrations used in the Ames test were as follows: • L-DAPA-L-Leu alone or L-DAPA-L-Val alone: 10 μM, 1 μM and 0.1 μM. • L-DAPA-L-Leu/methylglyoxal mixture or L-DAPA-L-Val/methylglyoxal mixture: 10 μM, 1 μM and 0.1 μM. • Methylglyoxal: 10 μM.

[5] = Mutagenicity of DAPA (statement, no method given); conditions: no test described

Row | Structure (SMILES) | Enzymatic activity (%) (ribonuclease A [1]) | viability at 1000 µM (EA.hy 926 cell line) [%] | Difference (B) − (A) (EA.hy 926 cell line) | Cells + MG scavengers (A) (EA.hy 926 cell line) [%] | effect against suppression of cell growth by MG (EA.hy 926 cell line) | cell survival when incubated with MG (EA.hy 926 cell line) [%] | modification of insulin by methylglyoxal (Human insulin) | also measured
1 | N=C(N)NN [Aminoguanidine, aminoguanidine, reference compound] | 70.52 | 92 | −5 | 97 | suppresses this process in a spectacular manner |  |  | better scavenger of methylglyoxal compared with metformin (factor) [2]: 450; protecting effect against structural modifications of ribonuclease A induced by MG, compared with the inhibitors of the invention (ribonuclease A [3]; 10 mM, 40 hours at 37° C.): much less effective
2 | CC(C)[C@H](NC(=O)[C@@H](N)CN)C(=O)O [example 23, L-DAPA-L-Val.2HCl] (H-[Dap]-Val-OH) | 90.77 | 93 | −1 | 94 | same trend | 93 | prevented | protection from structural modifications (dimer form) caused by methylglyoxal (lysozyme): provides protection; RNase A modifications induced by methylglyoxal (RNase A): prevent the modifications to RNase A; difference between number of cells growing with compound and with MG and compound (EA.hy 926 cell line; values in brackets): −3; somatostatin-14 modifications induced by methylglyoxal (somatostatin-14): prevent the modifications induced by methylglyoxal; protection from structural modifications (dimer form) caused by methylglyoxal (ribonuclease A [3]; ribonuclease A 10 mg/ml, methylglyoxal 10 mM, inhibitor equimolar, 37° C., 48 hours): provides protection; Six mixed strains ([4]; Human S9: No): −; Strain TA98 ([4]; Human S9: No): −; Six mixed strains ([4]; Human S9: Yes (metabolites)): −; Strain TA98 ([4]; Human S9: Yes (metabolites)): −; mutagenicity ([4]; alone or in combination with methylglyoxal, TA98, mixed strains, human liver S9 fractions): neither substance (L-DAPA-L-Leu or L-DAPA-L-Val) was mutagenic
3 | NCC(N)C(=O)O [D-DAPA, 2,3-diaminopropionic acid, reference compound] | 20.32 | 68 | −15 | 83 |  | 68 | prevents the modification of insulin by MG | toxicity with respect to EA cells (EA.hy 926 cell line; compound alone, 1 mM): cytotoxicity is higher; mutagenicity [5]: appears to be mutagenic
